Laboratory results as given in patent US4216142A, “Chromogenic substrates for the proteolytic enzymes” (Abbott Laboratories, priority 1978, dated 1980).

Test system: human thrombin
Assay: kinetic analysis of chromogenic substrate hydrolysis by thrombin
Format: biochemical
Details: substrate 0.1 M in 0.17 M Tris buffer, pH 7.4; human thrombin 0.63 mg/ml; 37° C.; monitored at 405 nm
Method: The enzyme and the substrate are mixed in a buffer solution, and the reaction is followed spectrophotometrically for 2 to 30 minutes. The concentration of substrate [S] is varied, whereas the enzyme concentration [E] is kept constant. If the extinction (OD) (=optical density) is plotted in a coordinate system as a function of time, a curve is obtained the tangent of which (difference in extinction per minute, Δ OD/minute, from which the quantity in μmoles of pNA/min(v) can be calculated) at time zero corresponds to the initial course of the hydrolysis. By means of this tangent the initial rate of the hydrolysis can be determined.
If l/v is plotted against l/[S], a Lineweaver-Burk diagram is obtained from which vmax and Km can be determined graphically. Thus Km and kcat can be determined.

- Km: 920 µM
Substance: sarcosylprolylarginine-p-nitrophenylanilide hydrochloride [Sar-Pro-Arg-pNA.2HCl]
- kcat: 158 s⁻¹
